In US20240158348A1, “HERBICIDAL CYCLIC AMIDES N-SUBSTITUTED WITH A HALOALKYLSULFONYLANILIDE GROUP” (FMC Corporation, priority 2021, published 2024):

Legend:
Assay type in all cases: in vivo
[1] = test system: barnyardgrass (Echinochloa crus-galli); experiment: Test A postemergence, barnyardgrass; conditions: 0 to 100 scale, 10 days
From the text: (§1) Seeds of plant species selected from barnyardgrass (Echinochloa crus-galli), blackgrass (Alopecurus myosuroides), corn (Zea mays), foxtail, giant (giant foxtail, Setaria faberi), goosegrass (Eleusine indica), kochia (Bassia scoparia), oat, wild (wild oat, Avena fatua), pigweed, palmer (palmer amaranth, Amaranthus palmeri), pigweed, redroot (redroot pigweed, Amaranthus retroflexus), ragweed (common ragweed, Ambrosia artemisiifolia), ryegrass, Italian (Italian ryegrass, Lolium multiflorum), soybean (Glycine max), and wheat (Triticum aestivum) were planted into a blend of loam soil and sand and treated preemergence with a directed soil spray using test chemicals formulated in a non-phytotoxic solvent mixture which included a surfactant.
(§2) At the same time, plants selected from these crop and weed species and also galium (catchweed bedstraw, Galium aparine) and horseweed (Erigeron canadensis) were planted in pots containing the same blend of loam soil and sand and treated with postemergence applications of test chemicals formulated in the same manner. Plants ranged in height from 2 to 10 cm and were in the one- to two-leaf stage for the postemergence treatment. Treated plants and untreated controls were maintained in a greenhouse for 10 days, after which time all treated plants were compared to untreated controls and visually evaluated for injury. Plant response ratings, summarized in Table A, are based on a 0 to 100 scale where 0 is no effect and 100 is complete control. A dash (-) response means no test result.

[2] = test system: pigweed, redroot (redroot pigweed, Amaranthus retroflexus); experiment: Test A preemergence, redroot pigweed; conditions: 0 to 100 scale, 10 days
From the text: as §1, §2

[3] = test system: pigweed, redroot (redroot pigweed, Amaranthus retroflexus); experiment: Test A postemergence, redroot pigweed; conditions: 0 to 100 scale, 10 days
From the text: as §1, §2

[4] = test system: barnyardgrass (Echinochloa crus-galli); experiment: Test A preemergence, barnyardgrass; conditions: 10 days
From the text: as §1, §2

[5] = test system: horseweed (Erigeron canadensis); experiment: Test A postemergence, horseweed; conditions: 0 to 100 scale, 10 days
From the text: as §1, §2

[6] = 125 g ai/ha, 0 to 100 scale (0 no effect, 100 complete control)

C#CCOC1CCN(c2cc(NS(=O)(=O)C(F)(F)F)c(C)cc2C)C1=O (stereo not drawn) [Compound 1, N-[2,4-dimethyl-5-[2-oxo-3-(2-propyn-1-yloxy)-1-pyrrolidinyl]phenyl]-1,1,1-trifluoromethanesulfonamide]
Plant response rating, Barnyardgrass ([1]; 31 g ai/ha): 80
Plant response rating, Barnyardgrass ([1]; 125 g ai/ha): 90
Plant response rating, Pigweed, Redroot ([2]; 31 g ai/ha): 90
Plant response rating, Pigweed, Redroot ([2]; 125 g ai/ha): 100
Plant response rating, Pigweed, Redroot ([3]; 31 g ai/ha): 80
Plant response rating, Pigweed, Redroot ([3]; 125 g ai/ha): 90
Plant response rating, Barnyardgrass ([4]; 31 g ai/ha, 0 to 100 scale): 80
Plant response rating, Barnyardgrass [4, 6]: 100

C=CCOC1CCN(c2cc(NS(=O)(=O)C(F)(F)F)c(C)cc2C)C1=O (stereo not drawn) [Compound 2, N-[2,4-dimethyl-5-[2-oxo-3-(2-propen-1-yloxy)-1-pyrrolidinyl]phenyl]-1,1,1-trifluoromethanesulfonamide]
Plant response rating, Barnyardgrass ([1]; 31 g ai/ha): 30
Plant response rating, Barnyardgrass ([1]; 125 g ai/ha): 90
Plant response rating, Pigweed, Redroot ([2]; 31 g ai/ha): 90
Plant response rating, Pigweed, Redroot ([2]; 125 g ai/ha): 100
Plant response rating, Pigweed, Redroot ([3]; 31 g ai/ha): 90
Plant response rating, Pigweed, Redroot ([3]; 125 g ai/ha): 90
Plant response rating, Barnyardgrass ([4]; 31 g ai/ha, 0 to 100 scale): 0
Plant response rating, Barnyardgrass [4, 6]: 100

Cc1cc(C)c(N2CCC(OC3CC3)C2=O)cc1NS(=O)(=O)C(F)(F)F (stereo not drawn) [Compound 3, N-[5-[3-(cyclopropyloxy)-2-oxo-1-pyrrolidinyl]-2,4-dimethylphenyl]-1,1,1-trifluoromethanesulfonamide]
Plant response rating, Horseweed ([5]; 31 g ai/ha): 70
Plant response rating, Horseweed ([5]; 125 g ai/ha): 90

Cc1cc(C)c(N2CCC(OC3CCC3)C2=O)cc1NS(=O)(=O)C(F)(F)F (stereo not drawn) [Compound 4, N-[5-[3-(cyclobutyloxy)-2-oxo-1-pyrrolidinyl]-2,4-dimethylphenyl]-1,1,1-trifluoromethanesulfonamide]
Plant response rating, Horseweed ([5]; 31 g ai/ha): 90
Plant response rating, Horseweed ([5]; 125 g ai/ha): 100

Cc1cc(C)c(N(COC(=O)C(C)(C)C)S(=O)(=O)C(F)(F)F)cc1N1CCC(OC2CC2)C1=O (stereo not drawn) [Compound 7, [[5-[3-(cyclopropyloxy)-2-oxo-1-pyrrolidinyl]-2,4-dimethylphenyl][(trifluoromethyl)sulfonyl]amino]methyl 2,2-dimethylpropanoate]
Plant response rating, Horseweed ([5]; 31 g ai/ha): 80
Plant response rating, Horseweed ([5]; 125 g ai/ha): 90

Cc1cc(C)c(N(COC(=O)C(C)(C)C)S(=O)(=O)C(F)(F)F)cc1N1CCC(OC2CCC2)C1=O (stereo not drawn) [Compound 8, [[5-[3-(cyclobutyloxy)-2-oxo-1-pyrrolidinyl]-2,4-dimethylphenyl][(trifluoromethyl)sulfonyl]amino]methyl 2,2-dimethylpropanoate]
Plant response rating, Horseweed ([5]; 31 g ai/ha): 70
Plant response rating, Horseweed ([5]; 125 g ai/ha): 90
